Where two headings read alike, the source gives them in different places. Ends that are not written are not given here.

Seven compounds from PMC4535769, “The Carboxy Terminus of the Ligand Peptide Determines the Stability of the MHC Class I Molecule H-2K^b: A Combined Molecular Dynamics and Experimental Study” (PLoS ONE, 2015) can be followed below.

For experiment [1], the target named is T1, cell surface K^b, RMA-S cells (Mus musculus, UniProt P01901).
T1 construct: endogenous in cells; host or cells: RMA-S cells (TAP-deficient)
T1 sequence (P01901 22-369): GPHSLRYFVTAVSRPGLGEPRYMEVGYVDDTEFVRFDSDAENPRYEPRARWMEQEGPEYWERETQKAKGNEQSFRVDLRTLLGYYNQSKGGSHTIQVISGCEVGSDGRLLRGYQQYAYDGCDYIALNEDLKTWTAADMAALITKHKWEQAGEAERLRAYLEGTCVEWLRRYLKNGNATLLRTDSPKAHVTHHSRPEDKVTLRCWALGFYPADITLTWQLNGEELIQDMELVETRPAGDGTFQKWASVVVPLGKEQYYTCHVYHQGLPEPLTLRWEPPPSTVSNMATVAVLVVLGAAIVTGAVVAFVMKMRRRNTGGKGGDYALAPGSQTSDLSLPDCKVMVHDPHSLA
T1 sequence (P01887 21-119 partner): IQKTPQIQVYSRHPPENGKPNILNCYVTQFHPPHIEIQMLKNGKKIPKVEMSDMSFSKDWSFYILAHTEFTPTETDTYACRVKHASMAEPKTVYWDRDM
Briefly: Brefeldin A (BFA) decay assay, cell surface K^b on RMA-S cells. In kind it is cell-based, murine. As to conditions: 10 μM peptide, 10 μg/ml BFA, 37°C, after four hours, MAb Y3, flow cytometry, n = 3. As for the experimental part:
RMA-S cells were kept overnight at 25°C and at t = 0 treated with 10 μg/ml BFA (Applichem or Alfa Aesar) and with 10 μM peptide and transferred to 37°C for a maximum of 4 hours. At different time points, cells were washed twice with 1x PBS/0.01% NaN3, and cell surface K^b was measured with the MAb Y3 by flow cytometry.
We then incubated these cells with each peptide and measured the surface residence time of the K^b/peptide complexes by withdrawing aliquots of cells at different times, fixing, and staining with the antibody Y3 followed by flow cytometry (Fig 7, S1I Fig).
RMA-S cells were incubated overnight at 25°C, then 10 μM peptide (as indicated) was added to the medium, and cells were transferred to 37°C. H-2K^b surface levels were determined at each time point with MAb Y3 and flow cytometry. Averages ± SEM (n = 3) are normalized to initial mean fluorescence intensity (MFI).
A general note: In flow cytometry, cells or beads pass a laser one at a time.

The target of experiment [2] is T2, K^b/β2m (Mus musculus, UniProt P01901).
T2 construct: The TDTF analysis was performed on the luminal domain of K^b, which was produced in E.coli; made in house
T2 sequence (P61769 21-119 partner, one chain of several): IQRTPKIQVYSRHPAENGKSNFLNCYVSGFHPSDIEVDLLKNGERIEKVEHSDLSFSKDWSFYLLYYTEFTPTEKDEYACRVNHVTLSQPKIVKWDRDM
Nature of the experiment: Competitive binding against SIINFEKTAMRAL measured by fluorescence anisotropy (IC50). On the set-up: species or system murine. Here is the method: Steady state measurements were performed with peptide-free folding reactions of K^b/β2m.
K^b was folded empty and then incubated with different concentrations of each peptide variant for five minutes. Then, the index peptide SIINFEKTAMRAL (fluorescently labeled on the lysine side chain) was added as a competitor, and the endpoint of its binding was measured by fluorescence anisotropy. From theory curves fitted to the data, we calculated the half-maximal concentration of inhibition of SIINFEKTAMRAL binding (IC50) for each modified peptide (Fig 6, S1F Fig).
Fig 6 Half-maximal concentration of peptide (IC50) required to inhibit the binding of the high affinity peptide SIINFEKTAMRAL. K^b/β2m complexes derived from the […] (B) structures were folded empty and then incubated for 5 minutes with different concentrations of full-length, truncated, or modified peptides. […] Binding curves (left) are of one representative experiment, and the IC50 values (right) are the average of three experiments.

For experiment [3], the target named is T2, K^b/β2m. Nature of the experiment: Thermal denaturation by tryptophan fluorescence (TDTF) of K^b/β2m/peptide complexes. Format: binding, murine. As to conditions: for ∆GTDTF: derived from TDTF measurements by the two-state, single-transition model.
Procedure: TDTF measurements and Tm determination were performed exactly as described previously [36].
To test our ranking by experiment, we next used the TDTF (thermal denaturation measured by tryptophan fluorescence) assay to determine the Tm of the K^b/peptide complexes. In this assay, thermal unfolding of the class I molecule is measured by the decrease in fluorescence intensity that occurs when the tryptophan indoles are exposed to the aqueous environment [49, 50]. The TDTF analysis was performed on the luminal domain of K^b, which was produced in E.coli and folded from inclusion bodies as a complex with human β2m and with or without peptide [36]. […] From the Tm values, we derived the ΔΔGTDTF values using the two-state model of denaturation [50, 51].
The folded heavy chain/β2m/peptide complex was prepared by diluting 200 ‏‏µg of the K^b heavy chain, 200 ‏‏µg of human β2m (both produced in E. coli), and none or 10 µM of peptide into 2 ml of the refolding buffer (100 mM Tris-Cl pH 8, 0.5 M arginine, 2 mM EDTA, 0.5 mM oxidized glutathione, 5 mM reduced glutathione), and the reaction was incubated at 4 °C for 48 hours, then ultracentrifuged at 10^5 ×g for 20 min to sediment aggregates. Concentration of soluble protein was then determined using the Bradford assay.
The folded complex was measured in PBS (150 mM NaCl, 10 mM phosphate pH 7.4) in a 1 cm × 1 cm cuvette in a Cary Eclipse fluorimeter (Agilent, Waldbronn, Germany) equipped with a Peltier heater and an in-cuvette thermocouple. The sample was heated at 0.30 K/min, and fluorescence values (λex= 290 nm, λem= 345 nm) were recorded every 0.1 K.
The differentials (F(T+∆T) – F(T))/∆T (with F = fluorescence intensity and ∆T = the temperature interval of recording) were smoothed over 40 points. The minimum of the resulting curve allows a simple optical assessment of the Tm. For display, LOWESS fits [17] to the differentials were performed with GraphPad Prism (GraphPad, La Jolla, CA, USA).
The binding free energy components were derived from the TDTF measurements according to the two-state, single-transition model [18,19]. […]
Setting [4] is: K^b/β2m folded empty, incubated 5 min with peptide, then 100 nM SIINFEKTAMRAL, fluorescence anisotropy endpoint, average of three experiments, read-out: IC50, inhibition of SIINFEKTAMRAL binding.

As for `CC(C)C[C@H](NC(=O)[C@H](C)NC(=O)[C@@H]1CCCN1C(=O)[C@H](Cc1ccc(O)cc1)NC(=O)[C@H](CC(N)=O)NC(=O)CNC(=O)[C@@H]1CCCN1C(=O)[C@H](C)NC(=O)[C@@H](N)Cc1ccccc1)C(=O)O` [FAPGNYPAL], the “K^b/peptide complexes remaining on the cell surface” value in experiment [1] is given as “more than 80%”. One may read the IC50 as the concentration that inhibits the measured activity by half. Regarding `CC[C@H](C)[C@H](NC(=O)[C@@H](NC(=O)[C@@H](N)CO)[C@@H](C)CC)C(=O)N[C@@H](CC(N)=O)C(=O)N[C@@H](Cc1ccccc1)C(=O)N[C@@H](CCC(=O)O)C(=O)N[C@@H](CCCCN)C(=O)N[C@@H](CC(C)C)C(=O)O` [reference compound], the “K^b/peptide complexes remaining on the cell surface” value in experiment [1] is listed as “more than 80%”. Moreover, the IC50 at K^b/β2m [2] (setting [4]) is 190 nM. For APGNYPAL [APGNYPAL], the IC50 on K^b/β2m [2] was found to be 150 nM. Same read-out and setting: the result for FAPGNYPA reads 18000 nM. As to SIINFEKA, the IC50 on K^b/β2m [2] (setting [4]) is 120 nM.

Consider SIINFEKG, for which, on K^b/β2m [3], the “∆GTDTF” value was -92.6 ± 9.2 kcal/mol.

On to SIINFEKL-Cdel, for which, on K^b/β2m [3], the “∆GTDTF” value is -83.8 ± 8.3 kcal/mol. In addition, the “∆∆GTDTF” value on K^b/β2m [3] (derived from Tm by the two-state model, relative to the full-length peptide) turned out to be 20.7 kcal/mol.
